Experimental data from patent US9630964B2, “Fluoro-9-methyl-β-carbolines” (priority 2013, dated 2017).
≈ marks a conversion by molar mass, not a printed value.

Columns and labels:
[1] = test system: DKK1 (Dickkopf-related protein 1); test: Quantitative RT-PCR, relative gene expression of DKK1 in SH-SY5Y cells; type: cell-based, human; details: 30 μM each
Protocol: (§1) SH-SY5Y cell lines, which were provided by the institute of human genetics of university hospital Eppendorf and which they in turn received from Braunschweig resource center, were used again for the RT-PCR experiments (reverse transcriptase polymerase chain reaction) carried out for this purpose.
(§2) The cells were incubated in MEM (Minimum essential medium, Life Technologies) with 10% FCS (fetal calf serum, Biochrom AG) and penicillin/streptomycin (Biochrom AG). The cells were seeded with a density of 1×10^5 cells/cm^2 in 25 cm^2 cell culture bottles (Falcon, cell culture treated) with 5 mL medium. Stock solutions of 10 mmol/L of compounds 9-methyl-β-carboline (AC-002 or 9MβC) and 6-fluoro-9-methyl-β-carboline (AC-102 or 6F9MβC), respectively were prepared in distillated water and sterile filtered. One day after the cell seeding the compounds were added in corresponding amounts (5-55 μL) to reach final concentration in the medium of 10 μM, 20 μM and 30 μM for 6F9MβC and 30 μM, 50 μM and 70 μM for 9MβC. The references received only the corresponding amount of solvent (distilled water). The medium was changed once a week.
(§3) The cells were regularly microscopically examined and harvest after 2, 7 and 14 days of incubation time, washed with PBS and immediately frozen at −80° C.
(§4) The RNA-isolation was done with the HighPure RNA Isolation kit of the company Roche. This isolation includes a DNaseI digestion. The concentration of RNA was measured with nanoDrop spectrometer and the RNA integrity was determined with the aid of the Bioanalyzer 2100 (Agilent). By using random hexamer primers, protector RNA inhibitor (Roche) and transcriptor reverse transcriptase (fermentas), 300 ng RNA were transcribed into cDNA per each sample.
(§5) After the reaction, this run was diluted 1:4 and thereof 2 μL per each quantitative RT-PCR were used. This was performed in a LightCycler 480 under standard conditions in the SybrGreen format with annealing temperatures determined for each primer individually. If possible, exon spanning primers were used.
(§6) The specificity was verified by melting curve analysis and subsequent gel electrophoresis. For each PCR the PCR efficiency and the Cq value was determined by the program LinRegPCR and these were used in further calculations. B2M (β2-microglobulin) was identified from multiple reference genes to be suitable for examination conditions. All results are results relative to the corresponding reference conditions, at which only solvent was administered for the specified period of time (i.e. 2 days, 7 days or 14 days). In FIGS. 5A to 5I are also relative gene expressions (relative to reference conditions) presented. Here, the 2-day exposition is presented in light grey, the 7-day exposition in dark grey and the 14-day exposition in black. Every measured value from FIGS. 5A-5I represents a mean value of 3 independent biologic samples.
Analogous to example 4 RT-PCR experiments with the inventive active agent 7-fluoro-9-methyl-β-carboline (7F9MβC) were also performed for some important cellular factors. The experimental procedure was here identical to the experiments with 6-fluoro-9-methyl-β-carboline and 9-methyl-β-carboline. Here the same (like for 6F9MβC) final concentrations of 30 μM, 50 μM and 70 μM 7F9MβC for the culture medium were employed. The examined factors were BDNF (brain-derived neurotrophic factor), Lif (Leukemia inhibitory factor), DRD2S (short variant of dopamine receptor subtype 2) as well as DKK1 (Dickkopf-related protein 1). […]

[2] = test system: Lif (Leukemia inhibitory factor); test: Quantitative RT-PCR, relative gene expression of Lif in SH-SY5Y cells; type: cell-based, human; details: 30 μM each
Protocol: as §1, §2, §3, §4, §5, §6
(§7) Analogous to example 4 RT-PCR experiments with the inventive active agent 7-fluoro-9-methyl-β-carboline (7F9MβC) were also performed for some important cellular factors. The experimental procedure was here identical to the experiments with 6-fluoro-9-methyl-β-carboline and 9-methyl-β-carboline. Here the same (like for 6F9MβC) final concentrations of 30 μM, 50 μM and 70 μM 7F9MβC for the culture medium were employed. The examined factors were BDNF (brain-derived neurotrophic factor), Lif (Leukemia inhibitory factor), DRD2S (short variant of dopamine receptor subtype 2) as well as DKK1 (Dickkopf-related protein 1). The same primers, that were already listed for the respective target genes in example 4 (Tab. 1) were used. As already noted, especially BDNF and Lif belongs to the most important factors for cellurar repair processes after traumas in the inner ear.

[3] = test system: BDNF (brain-derived neurotrophic factor); test: Quantitative RT-PCR, relative gene expression of BDNF in SH-SY5Y cells; type: cell-based, human; details: 30 μM each
Protocol: as §1, §2, §3
The RNA-isolation was done with the HighPure RNA Isolation kit of the company Roche. […] The concentration of RNA was measured with nanoDrop spectrometer and the RNA integrity was determined with the aid of the Bioanalyzer 2100 (Agilent). […]
After the reaction, this run was diluted 1:4 and thereof 2 μL per each quantitative RT-PCR were used. This was performed in a LightCycler 480 under standard conditions in the SybrGreen format with annealing temperatures determined for each primer individually. […]
The specificity was verified by melting curve analysis and subsequent gel electrophoresis. For each PCR the PCR efficiency and the Cq value was determined by the program LinRegPCR and these were used in further calculations. […] Every measured value from FIGS. 5A-5I represents a mean value of 3 independent biologic samples. […]

[4] = guinea pig, in vivo
Protocol: For better evaluation of half times of 9-methyl-β-carboline (9MβC), 6-fluoro-9-methyl-β-carboline (6F9MβC) and 7-fluoro-9-methyl-β-carboline (7F9MβC) in animal organism and more precisely in perilymph (the notified site of action), experiments with guinea pigs were conducted. Therefore, the respective active agent (in total 1.4 mg active agent per ear), packed in 40 μl of a hydrogel (18% Poloxamer 407 and 0.6% alginate), was administered at once in front of the membrane of the round window of narcotized guinea pigs. […] After expiry of the desired time (20 min, 2 h, 8 h or 24 h), each time 5 μL perilymph were removed under anesthesia from the top of the cochlea (apex). Subsequently, the animal was killed. Per each time (20 min, 2 h, 8 h or 24 h) measured values were taken of at least ears and averaged.
The concentration of the corresponding active agent in perilymph samples was determined by high-performance liquid chromatography (HPLC, partly also named as high-pressure liquid chromatography) and measurement of auto fluorescence of the respective active agent. For HPLC the eluent consisted to 45% of 90% acetonitrile and to 55% of ammonium acetate (40 mM, pH<5). The flow rate was 0.4 mL/min and injection volume was 10 μL. Each sample was diluted with 60% methanol, if the signal was too strong. After each run the injection needle was washed with 100% isopropanol. The detection limit was 20 fmol/L.
From the determined active agent concentrations the elimination half times were then calculated.

[5] = test system: DRD2S (short variant of dopamine receptor subtype 2); test: Quantitative RT-PCR, relative gene expression of DRD2S in SH-SY5Y cells; type: cell-based, human; details: 30 μM each
Protocol: as §1, §2, §3, §4, §5, §6, §7

[6] = test system: outer hair cells (OHC) in the inner ear; test: Immunohistochemical experiments: dying of outer hair cells after acoustic trauma; type: in vivo; details: guinea pig, intratympanic, total 0.2 mg per ear, day 14
Protocol: (§8) To induce an acoustic trauma, guinea pigs were anesthetized with 60 mg/kg ketamine and 8 mg/kg xylazine. Then Bepanten ointment (Bayer) was administered to the eyes and the animal was put in a soundproof chamber. A calibrated speaker was placed directly above the head of the animal, wherein it was set to emit a half octave band, centered around 8 kHz, with a volume of 110 dB for duration of 30 minutes.
The thermosensitive, liquid mixture was administered under view by a Hamilton syringe directly in front of the round window membrane of the middle ear (10 μL). The first dose 6-fluoro-9-methyl-β-carboline (e.g. 0.07 mg) was administered one hour after the acoustic trauma in a concentration of 0.007 mg/μL and the second dose 6-fluoro-9-methyl-β-carboline (0.035 mg in a volume of 5 μL) on day 3. Here, only one ear per animal was treated, while the second ear served as intra-individual control. The control here is particularly abbreviated to “contr.”. In comparative experiments it was found, that administration of just an active agent vehicle (hydrogel) has no effect in comparison to a fully untreated ear. For each active agent (including the controls) four guinea pigs were examined.
On day 14 after the acoustic trauma the region of the ear was dissected so that it contained the cochlea. […] In this way the sound induced damage can be localized and quantified. […]

[7] = test system: human neuroblastoma cells (SH-SY5Y); test: Differentiation of human neuroblastoma cells (SH-SY5Y), morphological examination; type: cell-based
Protocol: The SH-SY5Y cell line was obtained from the German collection of microorganisms and cell cultures—DSMZ, Braunschweig. The cells were cultivated in MEM (Minimum essential medium, Life Technologies) with 10% FCS (fetal calf serum, Biochrom AG) and penicillin/streptomycin (Biochrom AG). For morphological examinations the cells were seeded in a density of 1.5×10^4 cells/cm^2 in 24-well plates (Falcon, cell culture treated) with 1 mL medium. A stock solution of 10 mmol/L of the compound according to the invention 6-fluoro-9-methyl-β-carboline was prepared in 50% ethanol and sterile filtered. Five hours after seeding of the cells the compound according to the invention 6-fluoro-9-methyl-β-carboline was added in the corresponding amount to the medium achieving the desired final concentration. The medium was changed once a week. The cells were regularly microscopically examined. Microscopic images were taken at BZ Keyence 10 with a 10×lens and 4×digital zoom. An automatic contrast enhancement was made with the program BZ Analyzer.

physchem = details: water
Protocol: Furthermore, the solubility of both compounds in water was determined by preparing concentration series of both compounds in water at room temperature. The concentration at which the compound was barely soluble was determined by external calibration. The corresponding concentration was quantified by HPLC.

hearing threshold = test: Acoustically evoked potentials: hearing threshold after acoustic trauma; type: in vivo; details: guinea pig, total 0.35 mg per ear
Protocol: as §8, with “trigger” for “induce”
As measure for evaluation of the hearing threshold of the guinea pig acoustically evoked potentials were measured. Therefore, the electrophysiological activity of the nerve cells in the brain stem that forward impulses from the inner ear was derived after sonication of the ear with 8, 11.3, 16, 22.6 and 32 kHz. The sonification was carried out ascendingly from 0 dB to 90 dB in single steps of 5 dB.
The measurement was carried out 3 days before the acoustic trauma (D-3), 30 minutes after the acoustic trauma (D0) as well as 14 days after the acoustic trauma (D14).
Per animal one ear was not treated and used as intra-individual control (hierin partly abbreviated to “contr.”) and the second ear was treated with 6-fluoro-9-methyl-β-carboline. Therefore, one hour after the acoustic trauma a dose of 0.12 mg 6-fluoro-9-methyl-β-carboline (in a hydrogel as vehicle) was administered intratympanically. 3 days after the acoustic trauma a further intratympanic administration of 0.06 mg 6-fluoro-9-methyl-β-carboline was carried out. The measurements were conducted on four guinea pigs (n=4).
Afterwards, the remaining shift of hearing threshold (also named as permanent shift of hearing threshold) was determined from the measured values before the acoustic trauma (D-3) and after 14 days (D14). From the measured values directly after the acoustic trauma (D0) and after 14 days (D14) the recovery from the trauma (D0-D14) was also determined.
Analogous to the above performed experiments with 6-fluoro-9-methyl-β-carboline, also corresponding experiments with 9-methyl-β-carboline were performed. The experimental procedure was nearly identical, wherein of course 9-methyl-β-carboline instead of 6-fluoro-9-methyl-β-carboline was used. The total dose of 9-methyl-β-carboline was here 0.2 mg and 0.35 mg per ear, respectively.

Structure (SMILES) | DKK1 expression relative to expression induced by 9MβC ([1]; 2-day exposition) [times] | DKK1 expression relative to expression induced by 9MβC ([1]; 7-day exposition) | DKK1 expression relative to expression induced by 9MβC ([1]; 14-day exposition) [times] | Lif expression relative to expression induced by 9MβC ([2]; 2-day exposition) | Lif expression relative to expression induced by 9MβC ([2]; 7-day exposition) | Lif expression relative to expression induced by 9MβC ([2]; 14-day exposition) | BDNF expression relative to expression induced by 9MβC ([3]; 2-day exposition) | BDNF expression relative to expression induced by 9MβC ([3]; longer expositions (7 and 14 days)) | elimination half time [4] | DRD2S expression relative to expression induced by 9MβC ([5]; 2-day exposition) | DRD2S expression relative to expression induced by 9MβC ([5]; 7-day exposition) | DRD2S expression relative to expression induced by 9MβC ([5]; 14-day exposition) | acoustic trauma-induced dying of outer hair cells [6] | neurite growth as indication of differentiation ([7]; 50 μM, compared to 30 μM 6-fluoro-9-methyl-β-carboline) | concentration at which a comparable differentiation of the tested cells is observed ([7]; SH-SY5Y, 15 days incubation) | solubility (physchem) [µg/mL] | improvement of the recovery of hearing threshold (D1-D14) vs untreated control (hearing threshold)
Cn1c2cnccc2c2ccc(F)cc21 [7F9MβC, 7-fluoro-9-methyl-β-carboline] | 1.4 | comparable | 2.2 | approximately three times higher | weaker | comparable | approximately three times higher | comparable | approximately 5.0 h | twice as high | comparable | slightly weaker |  |  |  |  | 
Cn1c2ccccc2c2ccncc21 [9MβC, 9-methyl-β-carboline] |  |  |  |  |  |  |  |  | approximately 3.4 h |  |  |  | could counteract the dying of outer hair cells | too low neurite growth | approximately 70 μM | 168 (≈ 924 µM) | about 10 dB
